Data published in patent publication US20160096016A1, “METHODS AND SYSTEMS FOR REDUCING INFLAMMATION BY NEUROMODULATION AND ADMINISTRATION OF AN ANTI-INFLAMMATORY DRUG” (priority 2008, published 2016).
“Also recorded” adds a separate entry of the source.

Legend:
TNF production = conditions: endotoxemia; nicotine 2 mg/kg i.p. 30 minutes prior to endotoxin
Protocol: Adult male BALB/c mice 8 to 12 weeks-old (20-25 g; Taconic) and adult male Sprague Dawley rats 8 to 12 weeks-old (250-300 g, Charles River Laboratories) were housed at 25° C. on a 12-hour light/dark cycle, and let acclimatize for one week before experiments were conducted. Water and regular rodent chow were available ad libitum. Experiments were performed under protocols approved by the Institutional Animal Care and Use Committee of the Feinstein Institute for Medical Research, North Shore-LIJ Health System.
Endotoxin (LPS from E. coli, 0111:B4, Sigma-Aldrich) was injected to animals (10 mg/kg, i.p. corresponding to a LD75 dose). Blood and spleens were harvested 10, 30, 60 or 120 minutes after LPS administration. We used ELISA to determine TNF concentration in serum (R&D Systems). Spleens were either snap frozen for further immunofluorescence analysis or disrupted in PBS plus protease inhibitor cocktail (Complete mini, Roche) with a tissue homogenizer (Polytron 3100, Kinematica). TNF content in spleen tissue was determined by ELISA and normalized to protein concentration (Protein Assay, BioRad). In some experiments, PBS or nicotine (Sigma-Aldrich) was injected 30 minutes (2 mg/kg, i.p.) prior to endotoxin administration. Animals were then euthanized 60 minutes later and spleens were harvested for TNF immunofluorescence or TNF quantification in tissue homogenates.

[1] = system: LPS-stimulated spleen cells; assay: TNF production by LPS-stimulated spleen cells; type: cell-based, BALB/c mice; conditions: 5×10^6 cell/well, LPS 500 ng/mL, 4 hours; increasing concentrations; FIG. 7A
Protocol: (§1) In this example, differing concentrations of Paraoxon were included in various individual wells (having 5×10^6 cell/well) with a total volume of 250 microliters/well, and stimulated for 4 hours with LPS (500 ng/mL).

spleen cells = assay: Viability of LPS-stimulated spleen cells; conditions: concentrations of Paraoxon used in FIG. 7A; FIG. 7B
Protocol: as §1

| Compound | TNF production by TNF-producing splenic macrophages (TNF production) | TNF production by LPS-stimulated spleen cells [1] | toxicity / cell viability (spleen cells) |
| --- | --- | --- | --- |
| CN1CCCC1c1cccnc1 (stereo not drawn) [nicotine] | significantly attenuates TNF production |  |  |
| CCOP(=O)(OCC)Oc1ccc([N+](=O)[O-])cc1 [Paraoxon] |  | dose-dependent inhibition of TNF; also recorded: dose-dependently attenuated TNF levels; also recorded: the greater the inhibition of TNF | no significant toxicity; also recorded: without affecting cell viability; also recorded: no significant loss of viability |
